Data from ChEMBL document CHEMBL4602663, “Isocadiolides A-H: Polybrominated Aromatics from a Synoicum sp. Ascidian” (J Nat Prod, 2020).

Key:
Salmonella enterica = assay: Antibacterial activity against Salmonella enterica ATCC 14028 assessed as reduction in microbial growth; type: functional
Proteus hauseri = assay: Antibacterial activity against Proteus hauseri NBRC 3851 assessed as reduction in microbial growth; type: functional
Sortase A = target: T1, Sortase A (Staphylococcus aureus, UniProt Q9S446); assay: Inhibition of Staphylococcus aureus sortase A
T1 sequence (Q9S446 whole entry): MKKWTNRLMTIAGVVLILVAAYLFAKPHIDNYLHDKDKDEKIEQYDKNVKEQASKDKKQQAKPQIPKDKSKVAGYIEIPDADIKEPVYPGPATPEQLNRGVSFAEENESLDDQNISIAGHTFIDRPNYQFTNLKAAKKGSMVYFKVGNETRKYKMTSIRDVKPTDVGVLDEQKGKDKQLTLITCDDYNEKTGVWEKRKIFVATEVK

Klebsiella pneumoniae = assay: Antibacterial activity against Klebsiella pneumoniae ATCC 10031 assessed as reduction in microbial growth; type: functional
Enterococcus faecalis = assay: Antibacterial activity against Enterococcus faecalis ATCC 19433 assessed as reduction in microbial growth; type: functional
Isocitrate lyase = Isocitrate lyase (Candida albicans, UniProt Q9P8Q7); assay: Inhibition of Candida albicans ICL assessed as reduction in glyoxylate phenylhydrazone formation using M threo-DL(+)isocitrate as substrate incubated for 30 mins by spectrophotometric method
Chain of Isocitrate lyase (Q9P8Q7 whole entry): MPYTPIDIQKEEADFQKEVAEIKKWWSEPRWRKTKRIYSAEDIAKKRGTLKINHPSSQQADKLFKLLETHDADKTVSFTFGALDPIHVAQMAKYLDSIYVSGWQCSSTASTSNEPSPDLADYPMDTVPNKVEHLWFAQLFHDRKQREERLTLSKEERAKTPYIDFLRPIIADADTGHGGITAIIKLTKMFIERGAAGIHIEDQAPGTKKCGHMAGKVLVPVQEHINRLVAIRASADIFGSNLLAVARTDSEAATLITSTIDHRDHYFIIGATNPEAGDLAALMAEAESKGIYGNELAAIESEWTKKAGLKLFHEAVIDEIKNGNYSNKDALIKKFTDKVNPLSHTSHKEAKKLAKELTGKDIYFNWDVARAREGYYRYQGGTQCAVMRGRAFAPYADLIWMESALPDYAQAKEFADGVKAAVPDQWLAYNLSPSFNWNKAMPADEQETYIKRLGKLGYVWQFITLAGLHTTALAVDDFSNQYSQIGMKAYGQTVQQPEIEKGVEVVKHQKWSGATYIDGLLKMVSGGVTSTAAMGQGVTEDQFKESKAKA

Enterococcus faecium = assay: Antibacterial activity against Enterococcus faecium ATCC 19434 assessed as reduction in microbial growth; type: functional
Staphylococcus aureus = assay: Antibacterial activity against Staphylococcus aureus ATCC 6538P assessed as reduction in microbial growth; type: functional
A549 = assay: Cytotoxicity against human A549 cells assessed as reduction in cell viability after 72 hrs by sulforhodamine B assay; type: functional, cell-based; details: A549, 72 h
K562 = assay: Cytotoxicity against human K562 cells assessed as reduction in cell viability after 72 hrs by sulforhodamine B assay; type: functional, cell-based; details: K562, 72 h

Compound | MIC (Salmonella enterica) | MIC (Proteus hauseri) | IC50 (Sortase A) | MIC (Klebsiella pneumoniae) | MIC (Enterococcus faecalis) | IC50 (Isocitrate lyase) | MIC (Enterococcus faecium) | MIC (Staphylococcus aureus) | IC50 (A549) | IC50 (K562)
COc1c(Br)cc([C@H](O)C2=C(c3ccc(O)c(Br)c3)/C(=C/c3cc(Br)c(O)c(Br)c3)OC2=O)cc1Br | 4 µg/mL | 2 µg/mL | > 159 µM | > 128 µg/mL | 8 µg/mL | > 159 µM | > 128 µg/mL | 2 µg/mL |  | 
COc1c(Br)cc([C@H](O)C2=C(c3cc(Br)c(O)c(Br)c3)/C(=C/c3ccc(O)c(Br)c3)OC2=O)cc1Br | 8 µg/mL | 4 µg/mL | > 159 µM | > 128 µg/mL | 32 µg/mL | > 159 µM | > 128 µg/mL | 8 µg/mL |  | 
O=C(O)CC[N+](=O)[O-] |  |  |  |  |  | 17 µM |  |  |  | 
COC(=O)C1=C(c2cc(Br)c(O)c(Br)c2)[C@](OC)(c2cc(Br)c(O)c(Br)c2)O[C@@]1(C(=O)OC)c1cc(Br)c(O)c(Br)c1 | > 128 µg/mL | > 128 µg/mL | > 133 µM | > 128 µg/mL | > 128 µg/mL | 104 µM | > 128 µg/mL | 64 µg/mL | > 10 µM | > 10 µM
COC(=O)C1=C(c2cc(Br)c(O)c(Br)c2)C(=O)[C@](c2ccc(O)c(Br)c2)(c2cc(Br)c(O)c(Br)c2)C1=O | 64 µg/mL | 64 µg/mL | 70 µM | > 128 µg/mL | > 128 µg/mL | 49 µM | > 128 µg/mL | 16 µg/mL | > 10 µM | > 10 µM
COC(=O)C1=C(c2cc(Br)c(O)c(Br)c2)C(=O)C(c2cc(Br)c(O)c(Br)c2)(c2cc(Br)c(O)c(Br)c2)C1=O | 64 µg/mL | > 128 µg/mL | 67 µM | > 128 µg/mL | 64 µg/mL | 22 µM | > 128 µg/mL | 16 µg/mL | > 10 µM | > 10 µM
COc1ccc(/C=C2\OC(=O)C([C@@H](O)c3cc(Br)c(OC)c(Br)c3)=C2c2cc(Br)c(O)c(Br)c2)cc1Br | 64 µg/mL | 8 µg/mL | > 156 µM | > 128 µg/mL | 64 µg/mL | 150 µM | > 128 µg/mL | 32 µg/mL |  | 
COC(=O)C1=C(c2ccc(O)c(Br)c2)C(=O)[C@](c2ccc(O)c(Br)c2)(c2cc(Br)c(O)c(Br)c2)C1=O | 64 µg/mL | 8 µg/mL | 102 µM | > 128 µg/mL | > 128 µg/mL | 47 µM | > 128 µg/mL | 32 µg/mL | > 10 µM | > 10 µM
COc1ccc(C[C@@]2(O)OC(=O)C([C@@H](O)c3cc(Br)c(OC)c(Br)c3)=C2c2cc(Br)c(O)c(Br)c2)cc1Br | 16 µg/mL | 16 µg/mL | > 153 µM | > 128 µg/mL | 64 µg/mL | 63 µM | > 128 µg/mL | 16 µg/mL | > 10 µM | > 10 µM
COC(=O)C1=C(c2cc(Br)c(O)c(Br)c2)C(=O)[C@](OC)(c2ccc(O)c(Br)c2)O[C@]1(OC)c1cc(Br)c(O)c(Br)c1 | > 128 µg/mL | > 128 µg/mL | > 145 µM | > 128 µg/mL | > 128 µg/mL | 127 µM | > 128 µg/mL | 64 µg/mL | > 10 µM | > 10 µM
COC(=O)C1=C(c2cc(Br)c(O)c(Br)c2)[C@](OC)(c2ccc(O)c(Br)c2)O[C@@]1(C(=O)OC)c1cc(Br)c(O)c(Br)c1 | 64 µg/mL | 64 µg/mL | > 145 µM | > 128 µg/mL | 8 µg/mL | > 145 µM | > 128 µg/mL | 64 µg/mL | > 10 µM | > 10 µM
O=C1C=C(c2cc(Br)c(O)c(Br)c2)C(=O)C1(c1cc(Br)c(O)c(Br)c1)c1cc(Br)c(O)c(Br)c1 | 64 µg/mL | > 128 µg/mL | 88 µM | > 128 µg/mL | > 128 µg/mL | 34 µM | > 128 µg/mL | 4 µg/mL | > 10 µM | > 10 µM
O=C(O)C1=C(c2ccc(O)c(Br)c2)C(=O)C(c2cc(Br)c(O)c(Br)c2)(c2cc(Br)c(O)c(Br)c2)C1=O | > 128 µg/mL | > 128 µg/mL | > 159 µM | > 128 µg/mL | > 128 µg/mL | 54 µM | > 128 µg/mL | > 128 µg/mL | > 10 µM | > 10 µM
CC1(C)S[C@@H]2[C@H](NC(=O)[C@H](N)c3ccccc3)C(=O)N2[C@H]1C(=O)O [AMPICILLIN] | 0.06 µg/mL | 0.03 µg/mL |  |  | 0.5 µg/mL |  | 0.5 µg/mL | 0.03 µg/mL |  | 
COc1ccc2cc3[n+](cc2c1OC)CCc1cc2c(cc1-3)OCO2 [BERBERINE CHLORIDE] |  |  | 102 µM |  |  |  |  |  |  | 
O=C1O/C(=C\c2cc(Br)c(O)c(Br)c2)C(c2cc(Br)c(O)c(Br)c2)=C1C(=O)c1cc(Br)c(O)c(Br)c1 [CADIOLIDE B] | > 128 µg/mL | > 128 µg/mL | 103 µM | > 128 µg/mL | > 128 µg/mL | 61 µM | > 128 µg/mL | 64 µg/mL |  | 
O=C1O/C(=C\c2ccc(O)c(Br)c2)C(c2ccc(O)c(Br)c2)=C1C(=O)c1cc(Br)c(O)c(Br)c1 [CADIOLIDE C] | 64 µg/mL | > 128 µg/mL | 59 µM | > 128 µg/mL | > 128 µg/mL | 17 µM | > 128 µg/mL | 32 µg/mL |  | 
O=C1O/C(=C\c2ccc(O)c(Br)c2)C(c2cc(Br)c(O)c(Br)c2)=C1C(=O)c1cc(Br)c(O)c(Br)c1 [CADIOLIDE D] | > 128 µg/mL | > 128 µg/mL | 34 µM | > 128 µg/mL | > 128 µg/mL | 11 µM | > 128 µg/mL | 64 µg/mL |  | 
O=C1O/C(=C\c2cc(Br)c(O)c(Br)c2)C(c2ccc(O)c(Br)c2)=C1C(=O)c1cc(Br)c(O)c(Br)c1 [CADIOLIDE E] | > 128 µg/mL | > 128 µg/mL | > 162 µM | > 128 µg/mL | > 128 µg/mL | 27 µM | > 128 µg/mL | > 128 µg/mL |  | 
O=C1C=C(c2cc(Br)c(O)c(Br)c2)/C(=C/c2cc(Br)c(O)c(Br)c2)O1 [RUBROLIDE A] | 32 µg/mL | 16 µg/mL | 216 µM | > 128 µg/mL | > 128 µg/mL | > 216 µM | > 128 µg/mL | 32 µg/mL |  | 
CN(C)[C@@H]1C(O)=C(C(N)=O)C(=O)[C@@]2(O)C(O)=C3C(=O)c4c(O)cccc4[C@@](C)(O)[C@H]3C[C@@H]12 [TETRACYCLINE] |  |  |  | 0.25 µg/mL |  |  |  |  |  | 
